Test [1] has as its system methicillin-resistant Staphylococcus aureus (MRSA). Kind of test: Broth microdilution MIC (CLSI), Example 1. The format is cell-based. Conditions: Staphylococcus aureus, MRSA, Test 1, read-out: MIC. As for the experimental part: Cation adjusted Mueller Hinton Broth (CAMHB) was prepared using 100 mL sterile Mueller Hinton broth (pH adjusted). To each 100 mL volume, 125 μL of calcium stock solution (10 mg Ca^2+ per ml) and 43 μL magnesium stock solution (10 mg Mg^2+ per mL) was aseptically added. Sufficient broth is made up for daily use, with unused portions being stored at 4° C. overnight.
Potency was described as 1000 mg/g or 100%. The powder was dissolved in 10 mL DMSO and 1 mL volumes were aliquoted into eppendorf tubes and stored at −80° C.
For Staphylococcus aureus, a working solution of 256 μg/mL was prepared by diluting stock solutions as described above 1:100 in CAMHB (100 μL into 9.9 mL).
Serial dilutions were prepared in 96 well plates were set up in a safety cabinet according to methods standard in the art. Briefly: 90 μL of the working antibiotic solution was added to each well in Column 12 of the plate, and mixed well, before 90 μL was transferred to column 11. The solutions were mixed again, and then transferred to the next column as before, continuing the dilutions through to column 3. Mixing the well requires the pick up and expulsion of 90 μL in each well 3-4 times before picking up and transferring the 90 μL to the next well. […] The trays were set up as follows: 2 strains were tested in duplicate in one tray, such that strain 1 was located in rows A to D, strain 2 was located in rows E to H, etc.
Fresh cultures of bacteria were prepared for testing on sheep blood agar (SBA), and overnight incubation at 37° C. as follows; 2-3 colonies of each strain in 7 mL sterile saline, and the OD600 measured as an indication of the density (approx. […] or 0.5 McFarland Standard). The bacterial suspension was adjusted to a final absorbance of 0.08 to 0.100, using saline to achieve correct density, and as the blank. Within 15 minutes of preparation, the adjusted bacterial suspension with sterile saline 1:20 (1 mL into 19 mL sterile saline) to achieve a final bacterial concentration of 4 to 5×10^6 CFU/mL. The bacterial solution was placed into a sterile trough and 10 μL of bacterial solution added into wells 2 through to 12 on each required row (dilution of 1:10, with final concentration of bacteria in wells=5×10^5 CFU/mL). The tray was sealed and incubated at 37° C. for 18-24 h. The purity of bacterial suspension was confirmed by streaking out 50 μL of the 1:20 dilution onto a SBA plate, which was incubated for 37° C. for 18 h and examined. Viable counts were carried out to ensure that the correct concentration of bacteria and been added to the wells. The diluted bacterial solution (4 to 5×10^6 CFU/mL) was diluted 1:10 downwards by adding 100 μL to 900 μL of sterile saline in sterile tubes, and the serial dilutions continued 1:10 for 5 tubes. 100 μL (4-5 drops) of the 4th and 5th dilutions (tube 4=105 and tube 5=10^6 CFU/ml) was plated around in duplicate on pre-dried PCA agar plates and incubated at 37° C. overnight. The following day the number of colonies on the plates was counted and the average count in 100 μL obtained. The study was multiplied by 10 to obtain a viable bacterial count per mL.
Minimum inhibitory concentrations (μg/mL) were determined using the broth microdilution method recommended by the Clinical and Laboratory Standards Institute (CLSI) (Methods for Dilution Antimicrobial Susceptibility Tests for Bacteria That Grow Aerobically; Approved Standard—Seventh Edition. CLSI M7-A7, 2006; Performance Standards for Antimicrobial Disk and Dilution Susceptibility Tests for Bacteria Isolated from Animals; Approved Standard—Second Edition. CLSI M31-A2, 2002; Performance Standards for Antimicrobial Susceptibility Testing; CLSI M2-A9, 2006).
MIC breakpoints were determined by visual assessment and then confirmed using an ELISA plate reader, measuring absorbance levels at 450 nm.

Test [2] concerns Salmonella arizonae. Description: Broth microdilution MIC, Example 7. Format: cell-based. As for the experimental part: Minimum inhibitory concentrations (μg/ml) were determined using the broth microdilution method recommended by the Clinical and Laboratory Standards Institute (CLSI). […] Bacterial growth (turbidity) in the wells with antimicrobial was compared with the amount of growth (turbidity) in the growth-control well (containing no antimicrobial). All isolates were tested in duplicate, if there was a difference of greater than one two-fold dilution in the results, the test was repeated a third time. The purity of the isolates was closely monitored during testing by subculturing the prepared bacterial inoculum onto SBA (sheep blood agar). The MICs of the control strains for the antimicrobial ampicillin were determined for each testing run as an internal quality control. The MIC50, […] and MIC range (minimum and maximum) were calculated for each of the bacterial groups.

In test [3] the test system is S. aureus clinical isolates (MRSA and MSSA). Description: Broth microdilution MIC, Example 4. Format: cell-based, Staphylococcus aureus. The protocol:
Microtiter plates containing two-fold dilutions of each antimicrobial agent were inoculated with ˜10^5 CFU/ml of each isolate in a 100 μL final volume. Plates were incubated for 24 h at 37° C. Turbidity (absorbance at OD600) was measured using a Bio-Rad Benchmark Plus microplate spectrophotometer in Microplate Manager® version 5.2.1 (Bio-Rad). Minimum inhibitory concentration (MIC) endpoints were defined as the lowest antimicrobial concentration assessed by the spectrophotometer that inhibited bacterial growth. ATCC 49775 was included in the isolate collection as a control organism using breakpoints defined by the CLSI. The MIC50, MIC90 (concentrations that inhibited growth of the lower 50% and 90% of total organisms, respectively), and MIC range (minimum and maximum) were calculated to profile the antimicrobial susceptibility of the isolate collection.

Converted amounts (≈) assume the structure as drawn. Like-named read-outs stand apart in the source and are kept apart here. Where only a bound is given, the exact number is not on record here.

On to `N=C(N/N=C/c1ccc(Cl)cc1)N/N=C/c1ccc(Cl)cc1` [NCL812, 1,3-bis[(E)-(4-chlorophenyl)methyleneamino]guanidine], for which the minimum inhibitory concentration (MIC) in test [1] (MRSA 616) is 8 µg/mL (≈ 23.9 µM); in test [1] (MRSA 747), 8 µg/mL (≈ 23.9 µM); in test [2] (S. arizonae, 1st), above 128 µg/mL; in test [2] (S. arizonae, 2nd) it was above 128 µg/mL; in test [2] (Salmonella enterica, Salmonella arizonae, read-out: MIC), above 128 µg/mL. Besides, the MICrange lay in the range of 2 to 4 µg/mL in test [3] (CA-MRSA (n = 10)), 2 to 8 µg/mL in test [3] (Methicillin-susceptible staphylococci (n = 10)) and 2 to 8 µg/mL in test [3] (Total bacterial isolates (n = 30)).

Source of the values: patent US10253002B2, “Compounds and methods of treating infections” (Neoculi Pty Ltd., priority 2013, dated 2019).
